Experiments:
[1] = test system: PK E6/E7 vaginal epithelial cells; assay: MTT assay, cytotoxicity on human epithelial cells; assay type: cell-based; details: MTT assay, PBgluc, 12.5 to 100 μg/mL, for cationic peptides antifungal concentration range (<25 μg/mL)
Description: (§1) The immortalized human vaginal epithelial cell line PK E6/E7 [15] was cultured in serum-free CKM supplemented with 0.005 μg/mL recombinant epidermal growth factor, 50 μg/mL bovine pituitary extract, L-glutamine, and antibiotic/antimycotic solution (Life Technologies) in a CO2 thermostat at 37°C [16]. Cells at 60–70% confluence were used in subsequent experiments.
MTT Assay. PK E6/E7 vaginal epithelial cells were seeded in the wells of a 96-well plate at a density of 1 × 10^4 cells per well in a final volume of 100 μL. CKM was then aspirated and 100 μL of the appropriate peptide diluted in PBgluc was added. After 3 hours of incubation at 37°C, the peptide solution was removed, and the cells were let to regenerate in CKM for 24 hours. Then 5 mg/mL 3-[4,5-dimethylthiazol-2-yl]-2,5-diphenyltetrazolium bromide (MTT) was added to each well and the plate was placed to 37°C for 4 hours. The amount of formazan formed by the activity of the mitochondrial succinate dehydrogenase of living cells was measured by using a microtiter plate reader (FLUOstar OPTIMA) at the wavelength of 560 nm.
10 μg/mL of primycin, a macrolide lactone antibiotic complex that rapidly kills PK cells, was used as a control for cytotoxicity in both assays.
(§2) MTT assays and impedance measurements were performed in at least four technical parallels and two biological replicates; all the data are presented as mean ± standard deviation. Significance was calculated with Newman-Keuls post hoc test using the GraphPad Prism version 5 for Windows and a probability (P) value of less than 0.05 was considered significant.

[2] = test system: PK E6/E7 vaginal epithelial cells infected with C. albicans WO-1; assay: Vaginal epithelial cell - C. albicans coculture (RTCA); assay type: cell-based, human; details: PK E6/E7 + C. albicans WO-1, MOI of 5, 3 hours coculture then peptide 3 hours in PBgluc at both 25 and 50 μg/mL, RTCA at 40 hours
Description: PK E6/E7 cells were seeded in 96-well E-plates as described above for RTCA. On the next day, an overnight culture of C. albicans WO-1 was diluted to OD = 1 and let to grow until OD = 1.5–2. The fungal cell suspension was diluted in antibiotic/antimycotic-free CKM and was added to the human cells with a multiplicity of infection (MOI) of 5. After 3 hours of coculture at 37°C, CKM medium was replaced with NCR peptides in PBgluc. After 3 hours of incubation, peptides were removed and 200 μL of fresh antibiotic/antimycotic-free CKM was added. Subsequent measurements were performed as described above.
as §2

[3] = test system: PK E6/E7 vaginal epithelial cells; assay: Real-Time Cell Analysis (RTCA), proliferation of human epithelial cells; assay type: cell-based; details: 3 hours treatment in PBgluc, cell index 40 hours after treatment
Description: as §1
Real-Time Cell Analysis (RTCA). 7 × 10^4 PK E6/E7 cells per well were seeded in 96-well E-plates (ACEA Biosciences) in which the bottoms of the wells were covered with microelectrodes and the epithelial cells were allowed to attach to the bottom of the wells for 20 hours. CKM was then aspirated and the cells were treated with 100 μL of the peptides diluted in PBgluc. […] The cell index at the beginning of the measurement after treatment was considered as 100% and values measured at 40 hours were expressed (see Supplementary Figure 1in Supplementary Materials available online at http://dx.doi.org/10.1155/2014/320796). […]
as §2

C. albicans WO-1 cells = assay: Cell permeability assay (calcein release); assay type: cell-based, Candida albicans; details: calcein-loaded C. albicans WO-1, 10 mM potassium phosphate buffer pH 7.0, peptide 50 μg/mL, fluorescence 485/530 nm
Description: Cell permeability was monitored by the release of the intracellularly accumulated dye calcein. Overnight C. albicans WO-1 cells were washed twice with and resuspended in 10 mM potassium phosphate buffer (pH = 7.0) at a concentration of 10^7 cells mL^−1. Cells were loaded with acetomethoxy-calcein at a final concentration of 5 μM for 2 hours at room temperature. Cells were washed three times to remove the extracellular dye and then 100 μL of the suspension was transferred to FIA black 96-well plates. NCR peptides were then added at a concentration of 50 mg/L, and the release of calcein (formed by the cells' esterases) was measured by its fluorescence in a microtiter plate reader (FLUOstar OPTIMA) at excitation and emission wavelengths of 485 nm and 530 nm, respectively. Calcein efflux was calculated as previously reported.

Sequence: AFERTETRMLTIPCTSDANCPKVISPCHTKCFDGFCGWYIEGSYEGP [NCR001, anionic chemically synthesized mature NCR peptide of Medicago truncatula]
- Effect on viability of the human cells [1]: no negative effect
- Prevention of C. albicans induced epithelial cell death [2]: unable to prevent vaginal epithelial cell death
- Effect on proliferation of the human cells [3]: no negative effect
- Calcein (dye) efflux (C. albicans WO-1 cells): no calcein release
